{"source": "patent US12569500B2", "about": "“Combination comprising tricycle compound and use thereof in preparation of medicament for treating HBV” (FUJIAN AKEYLINK BIOTECHNOLOGY CO., LTD., priority 2020, dated 2026)", "key": {"HBV": {"test_system": "HBV", "test": "AAV/HBV mouse model, anti-hepatitis B virus efficacy in vivo (serum/liver HBV DNA, serum HBV RNA)", "design": "species or system C57BL/6 mice", "protocol": "5-week-old male C57BL/6 mice without specific pathogen level, purchased from Shanghai Slack Laboratory Animal Co., Ltd.\nCompound 1 was added with an appropriate amount of the above-mentioned solvent, and a uniform particle suspension was obtained after vortexing, and the preparation concentration was 1.0, 3.0 and 10.0 mg/mL. Store at 4° C. until used. Compound 1 is calculated according to the salt coefficient of 1.0 and the purity of 100%.\nTenofovir disoproxil (TDF) was purchased from Shanghai Panhong Chemical Technology Co., Ltd. Weigh an appropriate amount of TDF and dissolve it in physiological saline to prepare a 1 mg/mL mother liquor, vortex until TDF is fully dissolved, dispense into 1 mL size and store at −20° C. Take 1 mL of mother liquor before each administration, and dilute the working solution 10 times to 0.1 mg/mL with normal saline for the day's administration.\nrAAV8-1.3HBV (Type D, ayw) was purchased from Beijing Wujiahe Institute of Molecular Medicine, batch number x2018032301, 1×10^12 viral genome (v.g.)/mL. Dilute with sterile PBS to 5×10^11 v.g./mL before the experiment. Each mouse was injected with 200 μL, that is, each mouse was injected with 1×10^11 v.g.\nAAV/HBV injection: rAAV8-1.3HBV is pre-prepared with sterile PBS to a concentration of 1×10^11 v.g./200 μL solution before injection.\nInfection level detection: On days 14 and 21 after virus injection, about 120 μL of blood was collected from the submandibular vein for all infected mice to collect serum. After the whole blood was incubated in a 37° C. incubator for 30 minutes, the blood was centrifuged at 13,200×g for 3 minutes at 4° C. to collect about 30 μL of serum. The serum is stored at −80° C. for the detection of HBV DNA, HBeAg and HBsAg.\nGrouping: On the 28th day after virus injection, according to the levels of HBV DNA, HBsAg and HBeAg in serum samples on the 14th and 21st days after virus injection, and the body weight of the mice.\nDefinition of experimental days: the day of the first dosing is set to day 0 of the experiment.\nSerum sample preparation: After the blood sample was incubated at 37° C. for about 30 minutes, centrifuged at 4° C., 13,200 g for 3 minutes, and the separated supernatant was quickly frozen in dry ice.\nBlood was collected from the heart to collect serum for HBV DNA detection and detection of HBV RNA levels in groups 1 and 4.\n3. Quantitative PCR detection of HBV DNA content in mouse serum and liver:\nData analysis: The data is expressed as the average value standard error of each group of samples. Unless otherwise specified, groups 1-6: n=8. Use Student's t test for statistical analysis."}, "[1]": {"test": "Pharmacokinetic analysis of test compounds in AAV/HBV model mice", "assay_type": "in vivo, C57BL/6 mice"}, "[2]": {"conditions": "100 mpk BID, after 28 days of dosage, vs solvent group"}, "[3]": {"conditions": "10 mg/kg, BID, AAV/HBV model mice, day 27"}, "[4]": {"conditions": "C57BL/6, mouse, serum, po, 10 mg/kg, BID, AAV/HBV model mice, day 27"}}, "note": "Like-named read-outs stand apart in the source and are kept apart here.", "data": [{"smiles": "Cc1cc2n(c1)S(=O)(=O)c1ccc(C(=O)NCC[C@H]3COCCO3)cc1NC2=O", "note": "[Compound 1]", "values": [{"measurement": "serum HBV DNA content", "setting": "HBV; 10 mpk BID (Group 2), after 7 days of dosage", "value": "remained stable after 7 days of dosage"}, {"measurement": "HBV DNA content in the liver", "setting": "HBV; 10 mpk BID, after 28 days of dosage, vs solvent group", "value": "decreased"}, {"measurement": "serum HBV DNA content", "setting": "HBV; 30 mpk BID, after 7 days of dosage", "value": "remained stable after 7 days of dosage"}, {"measurement": "HBV DNA content in the liver", "setting": "HBV; 30 mpk BID, after 28 days of dosage, vs solvent group", "value": "decreased"}, {"measurement": "serum HBV DNA content", "setting": "HBV; 100 mpk BID, 7-28 days after dosage, vs solvent group, p<0.01", "value": "significantly lower than that in the solvent group"}, {"measurement": "HBV DNA content in the liver", "setting": "HBV; [2]", "value": "decreased"}, {"measurement": "HBV RNA content in the serum", "setting": "HBV; [2]", "value": "decreased"}, {"measurement": "mouse serum and liver HBV DNA", "setting": "HBV; compared with the solvent control group", "value": "significantly reduced"}, {"measurement": "serum HBV DNA content, trend over doses", "setting": "HBV; low (10 mpk), medium (30 mpk), high (100 mpk) dose groups BID vs solvent group, after 3 days of dosage", "value": "dose-dependent trend"}, {"measurement": "AUC0-inf/AUC0-last", "setting": "[1]; [3]", "value": 101, "unit": "%"}, {"measurement": "Tlast", "setting": "[1]; [3]", "value": 24.0, "unit": "h"}, {"measurement": "T 1/2 calculation time range", "setting": "[1]; 10 mg/kg, BID, AAV/HBV model mice, day 27, in h", "value": "9-24"}, {"measurement": "AUC(0-t)", "setting": "[1]; C57BL/6, mouse, serum, po, 10 mg/kg, BID, AAV/HBV model mice, day 27, read-out: AUC0-8", "value": 26, "unit": "µM·h"}, {"measurement": "AUC(0-t)", "setting": "[1]; C57BL/6, mouse, serum, po, 10 mg/kg, BID, AAV/HBV model mice, day 27, read-out: AUC0-last", "value": 47.3, "unit": "µM·h"}, {"measurement": "AUC(0-inf)", "setting": "[1]; [4]", "value": 47.6, "unit": "µM·h"}, {"measurement": "Cmax", "setting": "[1]; [4]", "value": 12200, "unit": "nM"}, {"measurement": "Tmax", "setting": "[1]; [4]", "value": 1, "unit": "h"}, {"measurement": "half-life", "setting": "[1]; [4]", "value": 2.23, "unit": "h"}, {"measurement": "MRT inf", "setting": "[1]; C57BL/6, mouse, serum, po, 10 mg/kg, BID, AAV/HBV model mice, day 27, read-out: MRT0-inf", "value": 6.36, "unit": "h"}, {"measurement": "MRT last", "setting": "[1]; C57BL/6, mouse, serum, po, 10 mg/kg, BID, AAV/HBV model mice, day 27, read-out: MRT0-last", "value": 6.27, "unit": "h"}, {"measurement": "concentration at 0 h", "setting": "[1]; C57BL/6, mouse, serum, group 2, 10 mg/kg BID oral, day 27, 0 hours (before dosage), read-out: average drug concentration in the mouse serum", "value": 78, "unit": "nM"}, {"measurement": "concentration at 4 h", "setting": "[1]; C57BL/6, mouse, serum, group 2, 10 mg/kg BID oral, day 27, 4 hours after the first dosage, read-out: average drug concentration in the mouse serum", "value": 1630, "unit": "nM"}, {"measurement": "concentration at 8 h", "setting": "[1]; C57BL/6, mouse, serum, group 2, 10 mg/kg BID oral, day 27, 8 hours after the first dosage, read-out: average drug concentration in the mouse serum", "value": 605, "unit": "nM"}, {"measurement": "concentration at 9 h", "setting": "[1]; C57BL/6, mouse, serum, group 2, 10 mg/kg BID oral, day 27, 9 hours after the first dosage, read-out: average drug concentration in the mouse serum", "value": 10300, "unit": "nM"}, {"measurement": "concentration at 12 h", "setting": "[1]; C57BL/6, mouse, serum, group 2, 10 mg/kg BID oral, day 27, 12 hours after the first dosage, read-out: average drug concentration in the mouse serum", "value": 1280, "unit": "nM"}, {"measurement": "concentration at 24 h", "setting": "[1]; C57BL/6, mouse, serum, group 2, 10 mg/kg BID oral, day 27, 24 hours after the first dosage, read-out: average drug concentration in the mouse serum", "value": 66, "unit": "nM"}]}]}
